# Patent US9890133B2 (priority 2011, dated 2018)
# Test: in vitro
# Settings: human
Structure (SMILES),CC50 (Picorana CC50) [µg/mL],CC50 [µg/mL]
"CCCCCC(=O)NC12C(=O)c3ccccc3C1(OC(=O)CCCCC)Oc1cc(C(C)C)ccc12 (stereo not drawn) [Example 91, Hexanoic acid 9b-hexanoylamino-7-isopropyl-10-oxo-9b,10-dihydro-5-oxa-indeno[2,1-a]inden-4b-yl ester]",> 50,
"CC(C)c1ccc2c(c1)OC1(O)c3cccc(N)c3C(=O)C21NC(=O)CCl (stereo not drawn) [Example 194, N-(1-Amino-4b-hydroxy-7-isopropyl-10-oxo-9b,10-dihydro-4bH-benzo[d]indeno[1,2-b]furan-9b-yl)-2-chloroacetamide]",,> 10
"CC(C)c1cc(C(C)C)c2c(c1)C1(O)C(=O)c3ccccc3C1(O)O2 (stereo not drawn) [Example 64, 4b,9b-Dihydroxy-6,8-diisopropyl-4b,9b-dihydro-5-oxa-indeno[2,1-a]inden-10-one]",8.13,
"CC(C)c1ccc2c(c1)OC1(O)c3cccc(N)c3C(=O)C21NC(=O)c1cc(C(C)C)nc2c1cnn2C(C)C (stereo not drawn) [Example 284, N-(1-Amino-4b-hydroxy-7-isopropyl-10-oxo-9b,10-dihydro-4bH-indeno[1,2-b]benzofuran-9b-yl)-1,6-diisopropyl-1H-pyrazolo[3,4-b]pyridine-4-carboxamide]",4.56,3.71
"CC(C)c1ccc2c(c1)OC1(O)c3ccccc3C(=O)C21NC=O (stereo not drawn) [Example 177, N-(4b-hydroxy-7-isopropyl-10-oxo-9b,10-dihydro-4bH-indeno[1,2-b]benzofuran-9b-yl)formamide]",,> 10
CC(C)c1ccc2c(c1)OC1(O)c3cccc(N)c3C(=O)C21NC(=O)c1sc2ccccc2c1Br (stereo not drawn) [Example 264],,> 10
"CC(C)c1ccc2c(c1)OC1(O)c3cccc(N)c3C(=O)C21NC(=O)c1cc2ccccn2c1 (stereo not drawn) [Example 283, N-(1-Amino-4b-hydroxy-7-isopropyl-10-oxo-9b,10-dihydro-4bH-indeno[1,2-b]benzofuran-9b-yl) indolizine-2-carboxamide]",5.47,> 10
"CCCCCC(=O)NC12C(=O)c3c(N)cccc3C1(OC(=O)CCCCC)Oc1cc(C(C)C)ccc12 (stereo not drawn) [Example 97, 1-amino-9b-hexanamido-7-isopropyl-10-oxo-9b,10-dihydro-4bH-benzo[d]indeno[1,2-b]furan-4b-yl hexanoate]",> 50,8.8
"CC(C)c1ccc2c(c1)OC1(O)c3cccc(N)c3C(=O)C21NC(=O)c1c(Cl)cc(Cl)cc1Cl (stereo not drawn) [Example 192, N-(1-Amino-4b-hydroxy-7-isopropyl-10-oxo-9b,10-dihydro-4bH-indeno[1,2-b]benzofuran-9b-yl)-2,4,6-trichlorobenzamide]",,> 10
"CCNc1cccc2c1C(=O)C1(O)c3ccc(C(C)C)cc3OC21O (stereo not drawn) [Example 133, 1-(Ethylamino)-4b,9b-dihydroxy-7-isopropyl-4bH-indeno[1,2-b]benzofuran-10(9bH)-one]",1.58,
"CC(C)c1ccc2c(c1)OC1(O)c3ccc(N4CCOCC4)cc3C(=O)C21O (stereo not drawn) [Example 140, 4b,9b-Dihydroxy-7-isopropyl-2-morpholinyl-4bH-benzo[d]indeno[1,2-b]furan-10(9bH)-one]",2.08,
"CC(C)c1ccc2c(c1)OC1(O)c3ccccc3C(=O)C21NC(=O)c1nc2ccccc2[nH]1 (stereo not drawn) [Example 227, N-(4b-hydroxy-7-isopropyl-10-oxo-9b,10-dihydro-4bH-benzo[d]indeno[1,2-b]furan-9b-yl)-1H-benzo[d]imidazole-2-carboxamide]",9.62,> 10
"CC(C)c1ccc2c(c1)OC1(OC(=S)Nc3ccccc3)c3ccccc3C(=O)C21N=[N+]=[N-] (stereo not drawn) [Example 122, Phenyl-thiocarbamic acid O-(9b-azido-7-isopropyl-10-oxo-9b,10-dihydro-5-oxa-indeno[2,1-a]inden-4b-yl) ester]",12,
"O=C1c2ccccc2C2(O)Oc3ccccc3C12NS(=O)(=O)C(F)(F)F (stereo not drawn) [Example 178, 1,1,1-Trifluoro-N-(4b-hydroxy-10-oxo-9b,10-dihydro-4bH-benzo[d]indeno[1,2-b]furan-9b-yl)methanesulfonamide]",,> 10
"CC(C)c1ccc2c(c1)OC1(O)c3cccc(N)c3C(=O)C21NC(=O)Cc1ccc(-c2ccccc2)cc1 (stereo not drawn) [Example 182, 2-([1,1′-Biphenyl]-4-yl)-N-(1-amino-4b-hydroxy-7-isopropyl-10-oxo-9b,10-dihydro-4bH-indeno[1,2-b]benzofuran-9b-yl)acetamide]",6.42,5.85
"CCNC(=O)N[C@@]12C(=O)c3ccccc3[C@]1(O)Oc1cc(C(C)C)ccc12 [Example 102, 1-Ethyl-3-((4bS,9bS)-4b-hydroxy-7-isopropyl-10-oxo-9b,10-dihydro-4bH-indeno[1,2-b]benzofuran-9b-yl)urea]",> 50,
"CC(C)c1ccc2c(c1)OC1(O)c3ccccc3C(=O)C21NC(=O)c1nc[nH]n1 (stereo not drawn) [Example 222, N-(4b-Hydroxy-7-isopropyl-10-oxo-9b,10-dihydro-4bH-benzo[d]indeno[1,2-b]furan-9b-yl)-1H-1,2,4-triazole-3-carboxamide]",39.4,> 10
COc1ccc(NC(=O)NC23C(=O)c4c(N)cccc4C2(O)Oc2cc(C(C)C)ccc23)cc1 (stereo not drawn) [Example 162],,> 10

Structure (SMILES),CC50 (Picorana CC50) [µg/mL],CC50 [µg/mL]
"CC(C)c1ccc2c(c1)OC1(O)c3cccc(N)c3C(=O)C21NC(=O)C1c2ccccc2Oc2ccccc21 (stereo not drawn) [Example 237, N-(1-Amino-4b-hydroxy-7-isopropyl-10-oxo-9b,10-dihydro-4bH-benzo[d]indeno[1,2-b]furan-9b-yl)-9H-xanthene-9-carboxamide]",6.27,> 10
"CCCCCCCC(=O)N[C@@]12C(=O)c3c(N)cccc3[C@]1(O)Oc1cc(C(C)C)ccc12 [Example 93, N-((4bS,9bS)-1-Amino-4b-hydroxy-7-isopropyl-10-oxo-9b,10-dihydro-4bH-indeno[1,2-b]benzofuran-9b-yl)octanamide]",8.49,6.23
"CC(=O)Nc1c(N)ccc2c1C(=O)C1(O)c3ccc(C(C)C)cc3OC21O (stereo not drawn) [Example 59, N-(2-Amino-4b,9b-dihydroxy-7-isopropyl-10-oxo-9b,10-dihydro-4bH-benzo[d]indeno[1,2-b]furan-1-yl)acetamide]",> 50,
"CC(C)C(=O)NC12C(=O)c3c(N)cccc3C1(O)Oc1cc(C(C)C)ccc12 (stereo not drawn) [Example 77, N-(1-Amino-4b-hydroxy-7-isopropyl-10-oxo-4b,10-dihydro-5-oxa-indeno[2,1-a]inden-9b-yl)-isobutylamide]",> 50,53.9
"CC(C)c1ccc2c(c1)OC1(O)c3ccccc3C(=O)C21NC(=O)c1cc2ccccc2oc1=O (stereo not drawn) [Example 225, N-(4b-hydroxy-7-isopropyl-10-oxo-9b,10-dihydro-4bH-benzo[d]indeno[1,2-b]furan-9b-yl)-2-oxo-2H-chromene-3-carboxamide]",22.9,> 10
"CC(C)c1ccc2c(c1)OC1(O)c3ccc(N(C)C)cc3C(=O)C21O (stereo not drawn) [Example 150, 2-(Dimethylamino)-4b,9b-dihydroxy-7-isopropyl-4bH-benzo[d]indeno[1,2-b]-furan-10(9bH)-one]",1.32,
"Cc1ccc(C(=O)NC23C(=O)c4c(N)cccc4C2(O)Oc2cc(C(C)C)ccc23)s1 (stereo not drawn) [Example 216, N-(1-Amino-4b-hydroxy-7-isopropyl-10-oxo-9b,10-dihydro-4bH-indeno[1,2-b]benzofuran-9b-yl)-5-methylthiophene-2-carboxamide]",4.75,9.69
"CO[C@@]12C(=O)c3ccccc3[C@]1(O)Oc1cc(C(C)C)ccc12 [Example 98, (4bS,9bS)-4b-Hydroxy-7-isopropyl-9b-methoxy-4bH-indeno[1,2-b]benzofuran-10(9bH)-one]",7.8,
"Cc1cc2c(cc1C)C1(O)C(=O)c3ccccc3C1(O)N2 (stereo not drawn) [Example 106, 4b,9b-Dihydroxy-7,8-dimethyl-4b,5-dihydroindeno[1,2-b]indol-10(9bH)-one]",3.53,
"CC(=O)NC12C(=O)c3ccccc3C1(OC(=O)C(C)(C)C)Oc1cc(C(C)C)ccc12 (stereo not drawn) [Example 117, 9b-Acetamido-7-isopropyl-10-oxo-9b,10-dihydro-4bH-benzo[d]indeno[1,2-b]furan-4b-yl pivalate]",> 50,
"CC(C)c1ccc2c(c1)OC1(O)c3ccccc3C(=O)C21NC(=O)Cc1nnn[nH]1 (stereo not drawn) [Example 220, N-(4b-Hydroxy-7-isopropyl-10-oxo-9b,10-dihydro-4bH-benzo[d]indeno[1,2-b]furan-9b-yl)-2-(1H-tetrazol-5-yl)acetamide]",> 50,> 10
"Cc1ccc2c(Cl)c(C(=O)NC34C(=O)c5c(N)cccc5C3(O)Oc3cc(C(C)C)ccc34)sc2c1 (stereo not drawn) [Example 270, N-(1-Amino-4b-hydroxy-7-isopropyl-10-oxo-9b,10-dihydro-4bH-indeno[1,2-b]benzofuran-9b-yl)-3-chloro-6-methylbenzo[b]thiophene-2-carboxamide]",6.57,5.93
"CC(C)c1ccc2c(c1)OC1(O)c3ccccc3C(=O)C21NC(=O)c1cnnc2ccccc12 (stereo not drawn) [Example 239, N-(4b-hydroxy-7-isopropyl-10-oxo-9b,10-dihydro-4bH-benzo[d]indeno[1,2-b]furan-9b-yl)cinnoline-4-carboxamide]",> 50,> 10
"CC(C)c1ccc2c(c1)OC1(O)c3cccc(N)c3C(=O)C21NC(=O)c1c2ccccc2nc2ccccc12 (stereo not drawn) [Example 241, N-(1-Amino-4b-hydroxy-7-isopropyl-10-oxo-9b,10-dihydro-4bH-benzo[d]indeno[1,2-b]furan-9b-yl)acridine-9-carboxamide]",7.86,> 10
"COc1c(C(=O)NC23C(=O)c4c(N)cccc4C2(O)Oc2cc(C(C)C)ccc23)cnc2ccc(F)cc12 (stereo not drawn) [Example 267, N-(1-Amino-4b-hydroxy-7-isopropyl-10-oxo-9b,10-dihydro-4bH-indeno[1,2-b]benzofuran-9b-yl)-6-fluoro-4-methoxyquinoline-3-carboxamide]",0.87,0.86
"CNC(=O)OC12Oc3cc(C(C)C)ccc3C1(NC(C)=O)C(=O)c1ccccc12 (stereo not drawn) [Example 118, 9b-Acetamido-7-isopropyl-10-oxo-9b,10-dihydro-4bH-benzo[d]indeno[1,2-b]furan-4b-yl methylcarbamate]",> 50,
"CC(C)c1ccc2c(c1)OC1(O)c3ccc(N4CCCCC4)cc3C(=O)C21O (stereo not drawn) [Example 139, 4b,9b-Dihydroxy-7-isopropyl-2-piperidinyl-4bH-benzo[d]indeno[1,2-b]furan-10(9bH)-one]",0.45,
